Laboratory results as given in ChEMBL document CHEMBL1126261, “Synthesis and antimuscarinic properties of some N-substituted 5-(aminomethyl)-3,3-diphenyl-2(3H)-furanones” (J Med Chem, 1992).
Where “and” joins values, the source holds several entries; their conditions need not be identical. Identical values can stand only once.

Key:
[1] = target: Muscarinic acetylcholine receptor (Homo sapiens) (UniProt P20309+P08173+P11229+P08172+P08912)
[2] = target: Muscarinic acetylcholine receptor M3 (Cavia porcellus) (UniProt Q8VH26); settings: Urinary bladder
Chain of Muscarinic acetylcholine receptor M3 (Cavia porcellus) (Q8VH26 1-587): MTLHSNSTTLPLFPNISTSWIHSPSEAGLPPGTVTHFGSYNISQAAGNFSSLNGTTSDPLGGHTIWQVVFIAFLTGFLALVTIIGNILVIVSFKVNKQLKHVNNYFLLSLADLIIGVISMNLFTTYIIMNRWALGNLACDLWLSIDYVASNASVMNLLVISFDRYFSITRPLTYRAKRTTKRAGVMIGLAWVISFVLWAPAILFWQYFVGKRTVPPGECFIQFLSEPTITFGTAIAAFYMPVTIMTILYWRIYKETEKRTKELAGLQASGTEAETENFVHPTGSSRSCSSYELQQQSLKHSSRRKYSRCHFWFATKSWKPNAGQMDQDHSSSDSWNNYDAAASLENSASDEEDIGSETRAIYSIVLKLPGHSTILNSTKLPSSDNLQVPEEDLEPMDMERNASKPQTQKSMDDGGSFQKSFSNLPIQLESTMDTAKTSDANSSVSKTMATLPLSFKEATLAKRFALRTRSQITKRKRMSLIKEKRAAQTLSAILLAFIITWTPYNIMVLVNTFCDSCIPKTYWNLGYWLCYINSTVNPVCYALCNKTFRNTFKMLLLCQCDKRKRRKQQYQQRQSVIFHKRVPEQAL
Description: The compound was tested for urinary bladder contraction ability in guinea pig.

[3] = target: Muscarinic acetylcholine receptor M3 (Cavia porcellus) (UniProt Q8VH26); settings: Urine
Description: Urinary bladder contraction ability in guinea pig by intravenous dose

| Structure (SMILES) | ID50 [1] | ID50 [2] | ID50 [3] |
| --- | --- | --- | --- |
| CC(C)(C)c1nccn1CC1CC(c2ccccc2)(c2ccccc2)C(=O)O1 (stereo not given) | 0.74 mg/kg | 1.3 mg/kg |  |
| C[n+]1ccn(CC2CC(c3ccccc3)(c3ccccc3)C(=O)O2)c1C(C)(C)C (stereo not given) | 0.29 mg/kg | 0.28 mg/kg |  |
| CCCc1nccn1CC1CC(c2ccccc2)(c2ccccc2)C(=O)O1 (stereo not given) | > 100 mg/kg | 12.5 mg/kg |  |
| CCc1nccn1CC1CC(c2ccccc2)(c2ccccc2)C(=O)O1 (stereo not given) |  | 20 mg/kg and 8.5 mg/kg |  |
| CCN(CC)CC1CC(c2ccccc2)(c2ccccc2)C(=O)O1 (stereo not given) | > 100 mg/kg |  | 16.2 mg/kg |
| CC(C)c1nccn1CC1CC(c2ccccc2)(c2ccccc2)C(=O)O1 (stereo in doubt; 22) | 152 mg/kg | 3.6 mg/kg |  |
| O=C1OC(Cn2cc[n+]3c2CCC3)CC1(c1ccccc1)c1ccccc1 (stereo not given) | 5.5 mg/kg | 2.1 mg/kg |  |
| CCc1nccn1C[C@H]1CC(c2ccccc2)(c2ccccc2)C(=O)O1 | 5.3 mg/kg |  | 1.3 mg/kg |
| CCc1n(CC2CC(c3ccccc3)(c3ccccc3)C(=O)O2)cc[n+]1C (stereo not given) | 0.67 mg/kg |  | 0.27 mg/kg |
| CC(C)c1nccn1C[C@H]1CC(c2ccccc2)(c2ccccc2)C(=O)O1 | 167 mg/kg | 1.9 mg/kg |  |
| Cc1nccn1CC1CC(c2ccccc2)(c2ccccc2)C(=O)O1 (stereo not given) | 29 mg/kg | 29 mg/kg |  |
| O=C1OC(Cn2cc[n+]3ccccc23)CC1(c1ccccc1)c1ccccc1 (stereo not given) | 8 mg/kg | 5.2 mg/kg |  |
| CC1CCC[n+]2ccn(CC3CC(c4ccccc4)(c4ccccc4)C(=O)O3)c21 (stereo not given) | 0.12 mg/kg | 0.045 mg/kg |  |
| O=C1OC(Cn2cccn2)CC1(c1ccccc1)c1ccccc1 (stereo not given) | 3.8 mg/kg | > 10 mg/kg |  |
| CN(C)CC1CC(c2ccccc2)(c2ccccc2)C(=O)O1 (stereo not given) | 61.6 mg/kg |  | > 10 mg/kg |
| Cc1ccc[n+]2ccn(CC3CC(c4ccccc4)(c4ccccc4)C(=O)O3)c12 (stereo not given) | 4.42 mg/kg |  | 1.7 mg/kg |
| CC(C)c1nccn1CC1CC(c2ccccc2)(c2ccccc2)C(=O)O1 (stereo in doubt; 44) | > 100 mg/kg | 30 mg/kg |  |
| CC(C)c1n(CC2CC(c3ccccc3)(c3ccccc3)C(=O)O2)cc[n+]1C (stereo not given) | 0.02 mg/kg |  | 0.03 mg/kg |
| C[N+](C)(C)CC1CC(c2ccccc2)(c2ccccc2)C(=O)O1 (stereo not given) | 4.6 mg/kg |  | 0.64 mg/kg |
| CN1[C@@H]2CC[C@H]1C[C@@H](OC(=O)C(CO)c1ccccc1)C2 (stereo not given in full) |  | 0.15 mg/kg |  |
| CCCc1n(CC2CC(c3ccccc3)(c3ccccc3)C(=O)O2)cc[n+]1C (stereo not given) | 0.54 mg/kg | 0.9 mg/kg |  |
